Columns and labels:
[1] = system: wild-type GCR1 ("wt") BY-2 cells; test: Thymidine incorporation in synchronized BY-2 cells, wild-type GCR1; type: cell-based, tobacco (Nicotiana tabacum); conditions: 3 μM and 10 μM ABA; BY-2 cells with wild-type GCR1; measured over time; FIG. 11A
Experimental: (§1) Agrobacterium tumefaciens were transformed with the pMON-GCR1 plasmid and used to produce transgenic BY-2 cell lines. BY-2 cells were transformed according to the method disclosed in An, G. Plan Physiol. 79, 568-570 (1985). The selected transgenic alli were grown in the dark on selective medium at the 24° C. and transferred to fresh medium every 4 week. Liquid cultures were obtained for the different transgenic lines and synchronization was achieved by a 24-h subculture in 5 mg/liter aphidicolin. See, Combettes, B. et al., Methods Cells Sci., 21, 109-121 (1991).
(§2) DNA synthesis is measured by incubating 1 ml samples of the synchronized cell suspension with 1 μCi of [^3H] thymidine for 20 minutes at 27° C. in Eppendorf microtubes with gentle shaking. Cells were collected by centrifugation for 5 minutes at 1,800× g, and the pellet was frozen in dry ice. DNA was extracted with Plant DNAzol Reagent (GIBCO/BRL), resuspended in water, and the [^3H] radioactivity was determined with a scintillation counter.
(§3) To determine the effect of the non-endogenous, constitutively activated version of GCR1, […], on the cell cycle, control cell (empty vector), wild-type GCR1 (“wt”) and R271P overexpressing BY-2 cells were synchronized with aphidicolin for 24 h, and, after removal of the cell cycle blocker, thymidine incorporation was measured. (See, FIG. 10). […]

[2] = system: non-endogenous, constitutively activated version of GCR1, R271P, BY-2 cells; test: Thymidine incorporation in synchronized BY-2 cells, constitutively activated GCR1 R271P; type: cell-based, tobacco (Nicotiana tabacum); conditions: 3 μM and 10 μM ABA; BY-2 cells with R271P GCR1; measured over time; FIG. 11B
Experimental: as §1, §2, §3

CC1=CC(=O)CC(C)(C)C1(O)/C=C/C(C)=C\C(=O)O (centres unmarked) [ABA, Abscissic Acid]
thymidine incorporation (DNA synthesis) [1]: decreases thymidine incorporation
thymidine incorporation (DNA synthesis) [2]: not affected
